Assay results reported in ChEMBL document CHEMBL2046389, “Contribution of indazolinone tautomers to kinase activity” (Bioorg Med Chem Lett, 2012).

Biological target: Vascular endothelial growth factor receptor 2 (Homo sapiens, UniProt P35968)
Test: Inhibition of KDR in presence of 1 mM ATP

Chain of Vascular endothelial growth factor receptor 2 (P35968 whole entry): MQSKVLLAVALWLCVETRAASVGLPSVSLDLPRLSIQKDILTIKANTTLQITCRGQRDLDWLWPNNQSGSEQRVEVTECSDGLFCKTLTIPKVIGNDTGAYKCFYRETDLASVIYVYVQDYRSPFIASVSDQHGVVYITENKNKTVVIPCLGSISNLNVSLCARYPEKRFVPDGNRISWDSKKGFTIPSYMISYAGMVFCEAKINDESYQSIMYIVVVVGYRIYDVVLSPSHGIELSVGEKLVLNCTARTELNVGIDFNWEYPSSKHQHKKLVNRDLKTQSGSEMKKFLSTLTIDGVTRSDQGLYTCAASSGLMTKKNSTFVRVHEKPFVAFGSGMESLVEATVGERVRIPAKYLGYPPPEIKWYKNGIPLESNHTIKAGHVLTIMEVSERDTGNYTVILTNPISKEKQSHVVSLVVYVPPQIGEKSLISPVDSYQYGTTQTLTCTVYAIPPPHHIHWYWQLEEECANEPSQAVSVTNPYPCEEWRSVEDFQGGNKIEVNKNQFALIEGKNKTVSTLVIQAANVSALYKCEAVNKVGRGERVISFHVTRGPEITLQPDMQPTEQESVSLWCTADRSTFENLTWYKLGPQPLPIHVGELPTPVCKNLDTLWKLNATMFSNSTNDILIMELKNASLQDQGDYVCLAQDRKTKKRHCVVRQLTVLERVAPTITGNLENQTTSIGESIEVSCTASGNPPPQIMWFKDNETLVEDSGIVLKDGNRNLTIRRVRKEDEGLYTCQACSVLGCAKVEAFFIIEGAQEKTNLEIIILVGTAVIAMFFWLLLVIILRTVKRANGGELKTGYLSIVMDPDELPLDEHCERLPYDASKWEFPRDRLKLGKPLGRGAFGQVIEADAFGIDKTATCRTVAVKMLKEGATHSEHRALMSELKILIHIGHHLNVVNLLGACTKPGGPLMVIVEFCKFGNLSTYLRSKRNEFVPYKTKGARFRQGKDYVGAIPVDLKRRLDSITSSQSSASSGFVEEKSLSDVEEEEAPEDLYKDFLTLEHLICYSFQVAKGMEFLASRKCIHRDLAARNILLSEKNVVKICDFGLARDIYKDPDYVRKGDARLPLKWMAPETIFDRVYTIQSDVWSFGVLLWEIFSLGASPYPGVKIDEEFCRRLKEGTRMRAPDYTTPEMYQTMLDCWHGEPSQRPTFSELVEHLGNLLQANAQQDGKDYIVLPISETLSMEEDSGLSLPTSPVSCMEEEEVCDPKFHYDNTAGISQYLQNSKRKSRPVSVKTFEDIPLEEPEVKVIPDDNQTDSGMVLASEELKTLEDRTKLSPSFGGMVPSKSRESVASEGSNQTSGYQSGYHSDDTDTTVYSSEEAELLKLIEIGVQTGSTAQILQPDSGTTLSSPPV

Row | SMILES | IC50 [µM]
1 | O=C(Nc1ccc(-c2cccc3c(=O)[nH][nH]c23)cc1)Nc1cccc(C(F)(F)F)c1 | 0.04
2 | Cc1cccc(NC(=O)Nc2ccc(-c3cccc4c3C(=O)NC4)cc2)c1 | > 1000
3 | Cc1cccc(NC(=O)Nc2ccc(-c3cccc4c(N)n[nH]c34)cc2)c1 | > 1000
4 | O=C(Nc1ccc(-c2cccc3[nH][nH]c(=O)c23)cc1)Nc1cccc(C(F)(F)F)c1 | 0.01
